Test results reported in patent publication US10981926B2 (Janssen Pharmaceutica NV, priority 2016, dated 2021).

Assays:
[1] = biological target: T1, wild-type Androgen Receptor (AR-wt) (Homo sapiens (Human), UniProt P10275); experiment: LNCaP-AR-wt ANT reporter assay (antagonist mode); format: cell-based; conditions: for Emax: maximum % inhibition of R1881 control response over tested concentration range, read-out: LNCaP-AR-wt ANT MAX % Inh; for IC50: read-out: LNCaP-AR-wt ANT pIC50 (converted)
[2] = biological target: T1, wild-type Androgen Receptor (AR-wt); experiment: LNCaP-AR-wt AG reporter assay (agonist mode); format: cell-based; conditions: for Emax: maximum % stimulation over tested concentration range, read-out: LNCaP-AR-wt AG MAX % Stim; for EC50: read-out: LNCaP-AR-wt AG pEC50 (converted)
[3] = biological target: T2, F876L mutant Androgen Receptor (AR-F876L) (Homo sapiens (Human), UniProt P10275, F877L); experiment: LNCaP-AR-F876L ANT reporter assay (antagonist mode); format: cell-based; conditions: for Emax: maximum % inhibition of R1881 control response over tested concentration range, read-out: LNCaP-AR-F876L ANT MAX % Inh; for IC50: read-out: LNCaP-AR-F876L ANT pIC50 (converted)
[4] = biological target: T2, F876L mutant Androgen Receptor (AR-F876L); experiment: LNCaP-AR-F876L AG reporter assay (agonist mode); format: cell-based; conditions: for Emax: maximum % stimulation over tested concentration range, read-out: LNCaP-AR-F876L AG MAX % Stim; for EC50: read-out: LNCaP-AR-F876L AG pEC50 (converted)
[5] = test system: rGABA-gated Cl− channel; experiment: GABA-Gated Cl Channel Antagonist Radioligand Binding Assay; design: species or system rat; conditions: 10 μM single point, [35S]-TBPS, cerebral cortex membrane homogenates
Description: GABA-gated C1 Chanel assays were performed at CEREP according to the following method. Membrane homogenates of cerebral cortex (120 μg protein) were incubated for 120 min at 22° C. with 3 nM […] in the absence or presence of the test compound in a buffer containing 50 mM Na2HPO4/KH2PO4 (pH 7.4) and 500 mM NaCl. Nonspecific binding was determined in the presence of 20 μM picrotoxinin. Following incubation, the samples were filtered rapidly under vacuum through glass fiber filters (GF/B, Packard) presoaked with 0.3% PEI and rinsed several times with ice-cold 50 mM Tris-HCl using a 96-sample cell harvester (Unifilter, Packard). The filters were dried then counted for radioactivity in a scintillation counter (Topcount, Packard) using a scintillation cocktail (Microscint 0, Packard). The results are expressed as a percent inhibition of the control radio ligand specific binding. The standard reference compound is picrotoxinin, which was tested in each experiment at several concentrations to obtain a competition curve from which its IC50 was calculated. In this assay, the following representative compounds disclosed herein had recorded activities at a 10 μM single point concentration in the GABA-gated Cl— Channel Binding Assay.

[6] = antagonist mode, pIC50 = −Log10(IC50 in Molar)
[7] = maximum % inhibition of R1881 control response over the tested concentration range
[8] = agonist mode, pEC50 = −Log10(EC50 in Molar)
[9] = maximum % stimulation (agonist response) over the tested concentration range

T2 sequence (P10275 whole entry F877L): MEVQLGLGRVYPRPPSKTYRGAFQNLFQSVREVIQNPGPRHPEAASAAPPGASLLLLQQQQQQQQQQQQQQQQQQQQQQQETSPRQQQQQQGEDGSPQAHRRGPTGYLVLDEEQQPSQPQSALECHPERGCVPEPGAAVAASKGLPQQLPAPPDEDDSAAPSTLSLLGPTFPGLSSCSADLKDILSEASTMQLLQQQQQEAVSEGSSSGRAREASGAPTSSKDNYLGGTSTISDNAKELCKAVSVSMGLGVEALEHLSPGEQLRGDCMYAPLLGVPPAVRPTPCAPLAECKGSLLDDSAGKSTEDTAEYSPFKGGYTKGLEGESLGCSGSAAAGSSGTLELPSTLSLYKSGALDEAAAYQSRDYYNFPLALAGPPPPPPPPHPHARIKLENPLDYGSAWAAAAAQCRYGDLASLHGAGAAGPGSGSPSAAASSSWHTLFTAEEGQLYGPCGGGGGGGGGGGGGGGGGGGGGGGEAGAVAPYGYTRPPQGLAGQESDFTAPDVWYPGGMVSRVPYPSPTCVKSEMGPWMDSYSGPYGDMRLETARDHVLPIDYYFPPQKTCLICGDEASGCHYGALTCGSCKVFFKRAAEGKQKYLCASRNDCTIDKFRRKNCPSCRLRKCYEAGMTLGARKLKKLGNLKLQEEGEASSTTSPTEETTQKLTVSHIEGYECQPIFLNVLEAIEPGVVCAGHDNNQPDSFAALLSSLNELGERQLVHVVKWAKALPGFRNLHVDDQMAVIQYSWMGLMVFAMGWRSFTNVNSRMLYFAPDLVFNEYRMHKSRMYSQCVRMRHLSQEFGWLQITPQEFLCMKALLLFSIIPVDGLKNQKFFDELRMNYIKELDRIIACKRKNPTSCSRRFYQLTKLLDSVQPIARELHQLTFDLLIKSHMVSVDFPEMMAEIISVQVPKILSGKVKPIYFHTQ
T1 sequence (P10275 whole entry): as the sequence (P10275 whole entry F877L) above, with L877F counted along it

Emax ([1]; antagonist mode)	IC50 [1, 6]	Emax ([2]; agonist mode)	EC50 [2, 8]	Emax ([3]; antagonist mode)	IC50 [3, 6]	Emax ([4]; agonist mode)	EC50 [4, 8]	Molecule	LNCaP-AR-wt ANT pIC50 [1, 6]	LNCaP-AR-wt ANT MAX % Inh [1, 7]	LNCaP-AR-wt AG pEC50 [2, 8]	LNCaP-AR-wt AG MAX % Stim [2, 9]	LNCaP-AR-F876L ANT pIC50 [3, 6]	LNCaP-AR-F876L ANT MAX % Inh [3, 7]	LNCaP-AR-F876L AG pEC50 [4, 8]	LNCaP-AR-F876L AG MAX % Stim [4, 9]	rGABA-gated Cl− channel % inh @10 μM [5]
0%	407 nM	0%	> 15100 nM	103%	316 nM	0%	> 15100 nM	N#Cc1ncc(N2C(=O)C3(CCC3)N(c3ccc4c(ccn4C4CCNCC4)c3)C2=S)cc1C(F)(F)F [Cpd 249, 5-[8-Oxo-5-(1-piperidin-4-yl-1H-indol-5-yl)-6-thioxo-5,7-diaza-spiro[3.4]oct-7-yl]-3-trifluoromethyl-pyridine-2-carbonitrile]	–	–	–	–	–	–	–	–	–
0%	1170 nM	0%	> 15100 nM	101%	977 nM	0.1%	> 15100 nM	N#Cc1ncc(N2C(=O)C3(CCC3)N(c3ccc4ccn(CCO)c4c3)C2=S)cc1C(F)(F)F [Cpd 250, 5-[8-[1-(2-hydroxyethyl)indol-6-yl]-5-oxo-7-thioxo-6,8-diazaspiro[3.4]octan-6-yl]-3-(trifluoromethyl)pyridine-2-carbonitrile]	–	–	–	–	–	–	–	–	–
0%	288 nM	-0.1%	> 15100 nM	101%	174 nM	0.1%	> 15100 nM	CN1CCC(n2ccc3cc(N4C(=S)N(c5cnc(C#N)c(C(F)(F)F)c5)C(=O)C45CCC5)ccc32)CC1 [Cpd 251, 5-[8-[1-(1-methyl-4-piperidyl)indol-5-yl]-5-oxo-7-thioxo-6,8-diazaspiro[3.4]octan-6-yl]-3-(trifluoromethyl)pyridine-2-carbonitrile]	–	–	–	–	–	–	–	–	–
0%	407 nM	-0.1%	> 15100 nM	100%	832 nM	-0.1%	> 15100 nM	N#Cc1ncc(N2C(=O)C3(CCC3)N(c3cnc(OC4CCN(CCO)CC4)nc3)C2=S)cc1C(F)(F)F [Cpd 252, 5-[8-[2-[[1-(2-hydroxyethyl)-4-piperidyl]oxy]pyrimidin-5-yl]-5-oxo-7-thioxo-6,8-diazaspiro[3.4]octan-6-yl]-3-(trifluoromethyl)pyridine-2-carbonitrile]	–	–	–	–	–	–	–	–	–
0%	891 nM	-0.1%	> 15100 nM	99.3%	708 nM	0.4%	> 15100 nM	Cc1cc(N2C(=O)C3(CCC3)N(c3cnc(OC4CCN(CCO)CC4)nc3)C2=S)cnc1C#N [Cpd 254, 5-[8-[2-[[1-(2-hydroxyethyl)-4-piperidyl]oxy]pyrimidin-5-yl]-5-oxo-7-thioxo-6,8-diazaspiro[3,4]octan-6-yl]-3-methyl-pyridine-2-carbonitrile]	–	–	–	–	–	–	–	–	–
94.7%	2510 nM	0.4%	> 15100 nM	99%	2750 nM	0.1%	> 15100 nM	Cn1c(CCO)nc2cc(N3C(=S)N(c4cnc(C#N)c(C(F)(F)F)c4)C(=O)C34CCC4)ccc21 [Cpd 255, 5-[8-[2-(2-hydroxyethyl)-1-methyl-benzimidazol-5-yl]-5-oxo-7-thioxo-6,8-diazaspiro[3.4]octan-6-yl]-3-(trifluoromethyl)pyridine-2-carbonitrile]	–	–	–	–	–	–	–	–	–
95.9%	4790 nM	0.4%	> 15100 nM	96.8%	1350 nM	0.6%	> 15100 nM	CN1CCC(c2nc3cc(N4C(=S)N(c5cnc(C#N)c(C(F)(F)F)c5)C(=O)C45CCC5)ccc3[nH]2)CC1 [Cpd 256, 5-[8-[2-(1-methyl-4-piperidyl)-1H-benzimidazol-5-yl]-5-oxo-7-thioxo-6,8-diazaspiro[3.4]octan-6-yl]-3-(trifluoromethyl)pyridine-2-carbonitrile]	–	–	–	–	–	–	–	–	–

Further lines, the molecule ahead of its results:

Molecule	Emax ([1]; antagonist mode)	IC50 [1, 6]	Emax ([2]; agonist mode)	EC50 [2, 8]	Emax ([3]; antagonist mode)	IC50 [3, 6]	Emax ([4]; agonist mode)	EC50 [4, 8]	LNCaP-AR-wt ANT pIC50 [1, 6]	LNCaP-AR-wt ANT MAX % Inh [1, 7]	LNCaP-AR-wt AG pEC50 [2, 8]	LNCaP-AR-wt AG MAX % Stim [2, 9]	LNCaP-AR-F876L ANT pIC50 [3, 6]	LNCaP-AR-F876L ANT MAX % Inh [3, 7]	LNCaP-AR-F876L AG pEC50 [4, 8]	LNCaP-AR-F876L AG MAX % Stim [4, 9]	rGABA-gated Cl− channel % inh @10 μM [5]
3-chloro-5-[8-[2-(1-methyl-4-piperidyl)indazol-5-yl]-5-oxo-7-thioxo-6,8-diazaspiro[3.4]octan-6-yl]pyridine-2-carbonitrile [Cpd 181]	–	–	–	–	–	–	–	–	6.47	96.8%	<4.82	1.9%	6.80	101.9%	<4.82	0.3%	26.0%
N#Cc1ncc(N2C(=O)C3(CCC3)N(c3ccc(C4=CCCC(CO)O4)cc3)C2=S)cc1C(F)(F)F (stereo not drawn) [Cpd 103, 5-(5-(4-(2-(hydroxymethyl)-3,4-dihydro-2H-pyran-6-yl)phenyl)-8-oxo-6-thioxo-5,7-diazaspiro[3.4]octan-7-yl)-3-(trifluoromethyl)picolinonitrile]	–	–	–	–	–	–	–	–	–	–	–	–	–	–	–	–	82.7%
COc1cc(N2C(=O)C3(CCC3)N(c3ccc(CC4CCN(C)CC4)cc3)C2=S)cnc1C#N [Cpd 239, 3-methoxy-5-[8-[4-[(1-methyl-4-piperidyl)methyl]phenyl]-5-oxo-7-thioxo-6,8-diazaspiro[3.4]octan-6-yl]pyridine-2-carbonitrile]	103%	603 nM	-0.1%	> 15100 nM	102%	347 nM	0.2%	> 15100 nM	–	–	–	–	–	–	–	–	–
Cn1cnc2cc(N3C(=S)N(c4cnc(C#N)c(C(F)(F)F)c4)C(=O)C34CCC4)ccc21 [Cpd 244, 5-[8-(1-methylbenzimidazol-5-yl)-5-oxo-7-thioxo-6,8-diazaspiro[3.4]octan-6-yl]-3-(trifluoromethyl)pyridine-2-carbonitrile]	98.7%	646 nM	0.2%	> 15100 nM	101%	245 nM	-0.5%	> 15100 nM	–	–	–	–	–	–	–	–	–
Cc1nc2cc(N3C(=S)N(c4cnc(C#N)c(C(F)(F)F)c4)C(=O)C34CCC4)ccc2[nH]1 [Cpd 245, 5-[8-(2-methyl-1H-benzimidazol-5-yl)-5-oxo-7-thioxo-6,8-diazaspiro[3.4]octan-6-yl]-3-(trifluoromethyl)pyridine-2-carbonitrile]	99.3%	479 nM	0%	> 15100 nM	102%	151 nM	0.5%	> 15100 nM	–	–	–	–	–	–	–	–	–
Cc1cc(N2C(=O)C3(CCC3)N(c3cnc(OC4CCNCC4)nc3)C2=S)cnc1C#N [Cpd 246, 3-methyl-5-[5-oxo-8-[2-(4-piperidyloxy)pyrimidin-5-yl]-7-thioxo-6,8-diazaspiro[3.4]octan-6-yl]pyridine-2-carbonitrile]	0%	1120 nM	0.1%	> 15100 nM	99.5%	1150 nM	0.2%	> 15100 nM	–	–	–	–	–	–	–	–	–
Cc1cc(N2C(=O)C3(CCC3)N(c3cnc(OC4CCN(C)CC4)nc3)C2=S)cnc1C#N [Cpd 247, 3-Methyl-5-[8-[2-[(1-methyl-4-piperidyl)oxy]pyrimidin-5-yl]-5-oxo-7-thioxo-6,8-diazaspiro[3,4]octan-6-yl]pyridine-2-carbonitrile]	0%	1000 nM	-0.1%	> 15100 nM	99.4%	1200 nM	0.2%	> 15100 nM	–	–	–	–	–	–	–	–	–
N#Cc1ncc(N2C(=O)C3(CCC3)N(c3ccc4c(ccn4CCO)c3)C2=S)cc1C(F)(F)F [Cpd 248, 5-[8-[1-(2-hydroxyethyl)indol-5-yl]-5-oxo-7-thioxo-6,8-diazaspiro[3.4]octan-6-yl]-3-(trifluoromethyl)pyridine-2-carbonitrile]	0%	417 nM	0%	> 15100 nM	102%	372 nM	0.4%	> 15100 nM	–	–	–	–	–	–	–	–	–
